# Assays:
# Osteoporosis = experiment: Example 14: comparison of KCaHCA and/or KMgHCA compositions, single subject; format: in vivo, human; settings: for symptoms of osteoporosis: 200 mg 3 times a day after meals; for subject's condition during the regimen: 200 mg doses 3 times a day, sequential regimens in the same subject after 3 months of the blend
# Procedure: • Subject: (cited as Example 12, above) • • Problem: Osteoporosis Treatment: Materials were consumed 3 times a day after meals. • Experiment 1. Blending 150 mg KMgHCA.8H2O+50 mg KCaHCA.3H2O • A 200 mg mixture of KCaHCA (25%) and KMgHCA (75%) prepared according to the subject methods was used. The actual percentage of calcium was (40/338)×25%=2.96%. Since KCaHCA.3H2O was used the percentage of magnesium in the composition was (24/412)×75%=4.37%. Since KMgHCA.8H2O was used, the ratio Ca:Mg=0.15:0.36 in mmol. • Experiment 2. 200 mg KMgHCA.8H2O • Experiment 3.
# [1] = tested on: de novo lipogenesis (DNL); experiment: Decrease of de novo lipogenesis in rats (literature); format: in vivo; settings: extrapolated from rats
# Text: Dosages of various HCA compositions found to be effective are quite large, indeed beyond the normal range for pharmaceutical products, with efficacy that is highly variable. […] A later study found a significant, yet limited effect after 7 days of a diet designed specifically to induce de novo lipogenesis in humans. (Physiol Behay. 2006 Jul. 30; 88(4-5):371-81). See also, Nutr Metab (Lond). 2005 Sep. 13; 2:23.
# [2] = tested on: de novo lipogenesis (DNL); settings: obese subjects, 6 g HCA/day for 5 days; cited from earlier work
# [3] = Conductivity of solutions (electrical conductivity, HACH Conductivity/TDS meter); format: physicochemical
# Text: The structure of the subject compounds (e.g., as described herein) can be deduced using a conductance meter to observe the extent of dissociate of the first and/or second metals from the compounds. In an experiment described below equimolar samples and comparative electrolyte conductance to K-acetate solution as a standard, data may be obtained which is characteristic of electrolyte binary conductants. […] The KMgHCA solution in water may have a pH 8-10 depending on the concentration. Under this condition, the heterocyclic anion formed will tend toward a stable form rather than an ionizable one.
# Several experiments investigating the electrical conductivities of solutions of KMgHCA, KZnHCA and KMnHCA were performed. The equipment used was HACH Conductivity/TDS meter, P/N=4460-00.
# Materials: KMgHCA.4H2O, KZnHCA.2H2O, KMnHCA.2H2O were prepared using methods described herein. KC2H3O2 and […] was obtained from Merck. H2O used was demineralized water.
# General procedure: All the HCA compounds and Acetate were weighed and placed in a volumetric flask and dissolved with demineralized water to one liter solution and then they were tested the conductivity (EC).
# [4] = tested on: osteoporosis and calcification on hand and leg; experiment: Example 13: comparison of different bimetal regimes (KMg vs. KCa vs. combination), two subjects; format: in vivo, human; parameters: key to Treatment performance: + +: very good performance; + −: good but slight complaint
# Procedure: Subject I: a person, 40 kg (cited in Example 11, above)
# Subject II: a person; 72 kg
# • Treatment: A. Mixture 25% KCa HCA+75% KMg HCA bimetals (100-200 mg) • B. Only KMg HCA bimetal Results: […]
# [5] = cited from earlier work
# [6] = 0.3 mmol/l in demineralized water, no additive
smiles,measurement,setting,value
O=C([O-])C[C@@](O)(C(=O)[O-])[C@H](O)C(=O)[O-].[Ca+2].[K+] [KCaHCA],symptoms of osteoporosis,Osteoporosis,not effective
same,subject's condition during the regimen,Osteoporosis,unable to move their leg
"O=C(O)CC(O)(C(=O)O)C(O)C(=O)O (stereo not drawn) [HCA, Hydroxycitric acid]",effective dose extrapolated to a 70 kg human being,[1],approximately 4.5 g/day
same,inhibition of DNL / promotion of fatty acid oxidation,[2],failed to inhibit DNL
"O=C1CC(O)(C(O)C(=O)[O][Mg][O]C(=O)C(O)C2(O)CC(=O)[O][Mg][O]C2=O)C(=O)[O][Mg][O]1 (stereo not drawn) [Mg3(HCA)2•2H2O, reference compound]",E. C (μS/cm),[3]; 0.1 mmol/l in demineralized water (equimolar in Mg2+ to run 8),31.2 μS/cm
"CC(=O)[O-].[K+] [KC2H3O2, K-acetate, reference compound]",E. C (μS/cm),[3]; [6],56.06 μS/cm
"O=C1CC(O)(C(O)C(=O)[O-])C(=O)[O][Mg][O]1.[K+] (stereo not drawn) [KMgHCA, Potassium Magnesium Bimetal HCA Compound]",κ value contribution of Mg—O bond (half of the 2 bond contribution),[3]; 0.3 mmol/l,2.095 μS/cm
same,E. C (μS/cm),[3]; [6],60.25 μS/cm
same,E. C (μS/cm),"[3]; 0.3 mmol/l, additive 10 mg gliserol",60.23 μS/cm
same,E. C (μS/cm),"[3]; 0.3 mmol/l, additive 10 mg glucose",60.29 μS/cm
same,2 bond of Mg—O contribution to κ value,[3]; run 2 minus run 1 (60.25-56.06),~4.19 μS/cm
same,Treatment performance,[4]; Patient II (72 kg),+ −
same,observed result following treatment,[4]; Subject II,could stand on their feet
same,reduction of symptoms,[4]; Subject II,partial reduction of symptoms
same,symptoms of osteoporosis,Osteoporosis,partial improvement
same,subject's condition during the regimen,Osteoporosis,slight difficult to walk because feeling of burning sensation in their feet
"CC(=O)[O-].CC(=O)[O-].O.O.O.O.[Mg+2] [Mg(CH3COO)2•4H2O, reference compound]",E. C (μS/cm),[3]; [6],32.3 μS/cm
O=C(O)CO [glycolic acid],pKa,[5],approx 3.83

# — patent US11066423B2, “Monomeric bimetal hydroxycitric acid compounds and methods of making and using the same” (GLYKON TECHNOLOGIES GROUP, LLC, priority 2016, dated 2021)
